The values that follow come from ChEMBL document CHEMBL1201862, “PubChem BioAssay data set” (2004).

Some test systems named below: T47D; HOP-92; A549; COLO 205; MDA-MB-231; HT-29; SW-620; HCC 2998; SF-539; PC-3; ACHN; NCI-H226; NCI-H460; SN12C; CAKI-1; NCI/ADR-RES; HOP-62; MOLT-4.
Holding throughout (assay): NCI anticancer screen, dose series, 48 h

Molecules are shown by their SMILES.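 How tested: cells in 96-well plates exposed to compound for 48 hours at five concentrations. The concentration for 50% growth inhibition is given as GI50.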 Active and inactive are the calls of the source. No stated cut-off is given here; in the data, active = GI50 up to about 1.1 µM and inactive = higher. Some results are limits rather than exact numbers.

Turning to `N=C(N)NC(=N)Nc1ccc(S(=O)(=O)O)cc1`, the GI50 in the test on T47D is > 100 µM (inactive); in the test with HOP-92, 77.8 µM (inactive); in the test on A549 it was > 100 µM (inactive); in the test with COLO 205, > 100 µM (inactive); with MDA-MB-231 it was > 100 µM (inactive); in the test on HT-29, > 100 µM (inactive). Also, the GI50 in the test on SW-620, with HCC 2998, with SF-539, with PC-3, in the test on ACHN and in the test with NCI-H226 was > 100 µM (inactive) in each case. The GI50 in the test with NCI-H460, in the test on SN12C, with CAKI-1, with NCI/ADR-RES and in the test on HOP-62 was > 100 µM (inactive) throughout.

In the case of `c1cncc(CSc2ncnc3[nH]cnc23)c1`, the GI50 in the test on T47D, in the test on HOP-92, in the test with A549, in the test on COLO 205, in the test on MDA-MB-231 and in the test with HT-29 was > 100 µM (inactive) throughout. Further, the GI50 in the test on SW-620, in the test on HCC 2998, in the test on PC-3, in the test with ACHN, in the test with NCI-H226 and in the test with MOLT-4 was > 100 µM (inactive) each time. In addition, the GI50 in the test with NCI-H460, with SN12C, in the test on CAKI-1, in the test on NCI/ADR-RES and in the test with HOP-62 was > 100 µM (inactive) each time.

For the molecule `COC(=O)/C=C(\S/C(=N\n1cc(C(=O)OC)c(C(=O)OC)c1-c1ccc(C)cc1)c1ccc(C)cc1)C(=O)OC`, the GI50 was 1.03 µM (active) in the test with T47D; 2.8 µM (inactive) in the test on HOP-92; 18.7 µM (inactive) in the test with A549; 2.45 µM (inactive) in the test with COLO 205; 5.25 µM (inactive) in the test with MDA-MB-231; 4.91 µM (inactive) in the test on HT-29. For the same molecule, the GI50 with SW-620 was 1.77 µM (inactive); with HCC 2998, 18.7 µM (inactive); in the test with SF-539, 17.9 µM (inactive); with PC-3, 5.28 µM (inactive); with ACHN it was 2.34 µM (inactive); with NCI-H226, 1.7 µM (inactive). For the same molecule, the GI50 was 4.26 µM (inactive) in the test with MOLT-4; 17.7 µM (inactive) in the test with NCI-H460; 6.18 µM (inactive) in the test on SN12C; 6.87 µM (inactive) in the test on NCI/ADR-RES; 16.9 µM (inactive) with HOP-62.

With `C=CCn1c2ccccc2[n+]2cc([N+](=O)[O-])ccc12`, the GI50 with T47D was 32.3 µM (inactive); in the test on HOP-92, 18.9 µM (inactive); in the test on A549, > 100 µM (inactive); in the test on COLO 205, 12.3 µM (inactive); with MDA-MB-231, 34.7 µM (inactive); in the test on HT-29, 18.3 µM (inactive). The GI50 with SW-620 is 30.8 µM (inactive); in the test on HCC 2998, 54.8 µM (inactive); in the test on SF-539, 32.7 µM (inactive); with PC-3, 48.8 µM (inactive); in the test on ACHN it was 33.1 µM (inactive); in the test on NCI-H226 it was 25.9 µM (inactive). In addition, the GI50 is 28.2 µM (inactive) in the test on MOLT-4; 27.3 µM (inactive) in the test with SN12C; 32.1 µM (inactive) in the test with CAKI-1; 57 µM (inactive) in the test with NCI/ADR-RES; 54.3 µM (inactive) with HOP-62.

For `CCCc1cc2c(cc1O)CC[C@@H]1[C@@H]2CC[C@]2(C)[C@@H](O)CC[C@@H]12`, the GI50 in the test on T47D was 10.6 µM (inactive); in the test on HOP-92, 19.1 µM (inactive); with A549 it was 10.6 µM (inactive); in the test with COLO 205, 18.2 µM (inactive); with MDA-MB-231 it was 17.3 µM (inactive); with HT-29 it was 16.3 µM (inactive). For the same molecule, the GI50 in the test on SW-620 was 3.95 µM (inactive); in the test on HCC 2998, 16.5 µM (inactive); with SF-539, 10.8 µM (inactive); in the test with PC-3, 13.4 µM (inactive); in the test with ACHN, 12.9 µM (inactive); with NCI-H226, 13.4 µM (inactive). Moreover, the GI50 was 5.6 µM (inactive) in the test with MOLT-4; 10.7 µM (inactive) in the test on NCI-H460; 11.7 µM (inactive) in the test on SN12C; 11.3 µM (inactive) in the test with CAKI-1; 6.32 µM (inactive) in the test with NCI/ADR-RES.

As for `OC1(c2ccc(-c3ccccc3)cc2)c2ccccc2C2=NCCN21` (centres undefined), the GI50 is 86.9 µM (inactive) in the test with T47D; 50.4 µM (inactive) in the test on HOP-92; 84.9 µM (inactive) in the test with A549; 21.4 µM (inactive) with COLO 205; 56.1 µM (inactive) with MDA-MB-231; 21.4 µM (inactive) in the test with HT-29. For the same molecule, the GI50 in the test with SW-620 was 45.4 µM (inactive); in the test with HCC 2998, 19.1 µM (inactive); in the test with PC-3 it was 11.9 µM (inactive); with ACHN, 20.6 µM (inactive); in the test with NCI-H226, 18.3 µM (inactive); in the test on MOLT-4, 27.1 µM (inactive). Further, the GI50 is 45.8 µM (inactive) with NCI-H460; > 100 µM (inactive) in the test with SN12C; 50.6 µM (inactive) in the test with CAKI-1; 29.2 µM (inactive) in the test with NCI/ADR-RES; 16.6 µM (inactive) in the test with HOP-62.

On to `CC(=O)OC1CC2C(=O)C(=O)C1(C)C2(C)C` (centres undefined), for which the GI50 in the test on T47D is > 100 µM (inactive); with HOP-92, 56.6 µM (inactive); with A549, > 100 µM (inactive); in the test with COLO 205, > 100 µM (inactive); in the test on MDA-MB-231, > 100 µM (inactive); in the test with HT-29, > 100 µM (inactive). Moreover, the GI50 with SW-620, in the test with HCC 2998, in the test with PC-3, in the test on ACHN, with NCI-H226 and with MOLT-4 was > 100 µM (inactive) in each case. The GI50 in the test on NCI-H460, in the test with SN12C, with NCI/ADR-RES and with HOP-62 was > 100 µM (inactive) throughout.

On to `CC(C(=O)ON1C(=O)CCC1=O)c1ccc(C(=O)c2ccccc2)s1` (centres undefined), for which the GI50 in the test on T47D, with HOP-92, in the test with A549, with COLO 205, with MDA-MB-231 and with HT-29 was > 100 µM (inactive) throughout. The GI50 in the test with SW-620, in the test on HCC 2998, in the test on PC-3, with ACHN, in the test on NCI-H226 and with MOLT-4 was > 100 µM (inactive) in each case. Besides, the GI50 with NCI-H460, in the test on SN12C, in the test on CAKI-1, in the test with NCI/ADR-RES and in the test with HOP-62 was > 100 µM (inactive) throughout.

In the case of `C1CSCCSCCS1`, the GI50 in the test on T47D, in the test with HOP-92, with A549, in the test with COLO 205, with MDA-MB-231 and in the test on HT-29 was > 100 µM (inactive) throughout. The GI50 in the test with SW-620, in the test with HCC 2998, with SF-539, in the test with PC-3, with MOLT-4 and in the test with NCI-H460 was > 100 µM (inactive) each time. Besides, the GI50 in the test with SN12C, in the test on NCI/ADR-RES and with HOP-62 was > 100 µM (inactive) in each case.

For the molecule `O=C1CCCCCC1CC(Sc1ccccc1)Sc1ccccc1` (centres undefined), the GI50 is 14.4 µM (inactive) in the test with T47D; > 100 µM (inactive) in the test on HOP-92; 39.8 µM (inactive) with A549; 61.4 µM (inactive) in the test with COLO 205; > 100 µM (inactive) in the test on MDA-MB-231; > 100 µM (inactive) in the test with HT-29. The GI50 in the test on SW-620 is 98.2 µM (inactive); in the test on HCC 2998, > 100 µM (inactive); with SF-539, > 100 µM (inactive); with PC-3, 51.6 µM (inactive); in the test on ACHN, > 100 µM (inactive); with NCI-H226, > 100 µM (inactive). The GI50 in the test with MOLT-4 was 8.69 µM (inactive); in the test on NCI-H460, 64.7 µM (inactive); in the test on CAKI-1, > 100 µM (inactive); in the test on NCI/ADR-RES it was > 100 µM (inactive); in the test on HOP-62 it was > 100 µM (inactive).

For the molecule `C#CCNC(CCCNC(=N)N)C(=O)O` (centres undefined), the GI50 in the test with T47D, in the test with HOP-92, with A549, with COLO 205, in the test on MDA-MB-231 and in the test with HT-29 was > 100 µM (inactive) each time. For the same molecule, the GI50 in the test on SW-620, in the test with HCC 2998, with PC-3, with ACHN, in the test with NCI-H226 and with MOLT-4 was > 100 µM (inactive) throughout. Also, the GI50 in the test with NCI-H460, in the test on CAKI-1, in the test with NCI/ADR-RES and in the test on HOP-62 was > 100 µM (inactive) in each case.

Consider `O=c1[nH]c(=O)n(COC(CO)CO)cc1-c1ccccc1`, for which the GI50 with T47D, in the test with HOP-92, in the test on A549, in the test on COLO 205, with MDA-MB-231 and in the test on HT-29 was > 100 µM (inactive) in each case. Also, the GI50 in the test with SW-620, in the test on HCC 2998, with PC-3, with ACHN, with MOLT-4 and with NCI-H460 was > 100 µM (inactive) each time. In addition, the GI50 with SN12C, in the test with CAKI-1, in the test on NCI/ADR-RES and in the test on HOP-62 was > 100 µM (inactive) each time.
